The source of these data is patent US20060094765A1, “Use of a sri and vitamin b6 for the treatment of neurological and mental disorders” (Pantarhei Bioscience B.V., priority 2002, published 2006).

Experiment [1] can be described thus: Chronic mild stress (CMS) model of depression, sucrose consumption. The class given is in vivo, Male Wistar rats. The conditions noted are these: unstressed control rats; citalopram 2.5 or 5.0 mg/kg, alone or with pyridoxine 10 mg/kg, i.p. daily, 5 weeks. The text has this: (§1) Chronic mild stress (CMS), a well-validated preclinical model of depression (Willner, 1997, Validity, reliability and utility of the chronic mild stress model of depression: a 10-year review and evaluation. Psychopharmacology, 134, 319-329, […] et al., 2002, Preclinical models: status of basic research in depression, Soc. Biol. Psych., 52, 503-528), was used to study the effects of combined therapy of SRI with pyridoxine on responder rate and the time to achieve a full drug response ('onset of action') as compared to treatment with SRI alone. Citalopram, as an example of a SRI, was combined with either pyridoxine or vehicle and administered to chronically, mildly stressed rats during a 5-week treatment schedule. Consumption of sucrose solution after fasting, which a commonly accepted measure of anhedonia, i.e. inability to experience pleasure, was chosen for readout, since this is a core symptom of human depressive disorders. Male Wistar rats were brought into the laboratory two months before the start of the experiment for acclimatization and training (see below). During this period, the animals were singly housed and were maintained on a 12-h light/dark cycle (lights on at 08.00) at a constant temperature of 22±2° C. and humidity (55±5%). Food pellets (containing an optimal level of 1 mg/kg pyridoxine) and water were freely available, with the exception of the deprivation procedure as described below. During a period of 5 weeks, rats were trained to consume a 1% sucrose solution. Training consisted of ten 1-h baseline tests (twice weekly) in which sucrose was presented, in the home cage, following 14 h of food and water deprivation. Sucrose intake was measured by weighing pre-weighed bottles containing the sucrose solution, at the end of the test. Subsequently, sucrose consumption was monitored, under similar conditions, at weekly intervals throughout the whole experiment. […] Mean values in sucrose consumption during stress and subsequently the 5 weeks of vehicle and drug treatment in control and stressed animals were calculated. […]

The subject of experiment [2] is chronically, mildly stressed rats. The description is as above. It counts as in vivo, Male Wistar rats. Particulars: stressed rats, n=8, alone or with pyridoxine 10 mg/kg.
Source text: as §1

With `CN(C)CCCC1(c2ccc(F)cc2)OCc2cc(C#N)ccc21` (stereo not drawn) [citalopram], the “effect on sucrose intake in control animals” value in experiment [1] is recorded as “no significant effect”. The “responder rate (rats exhibiting increased sucrose intake)” value in experiment [2] (citalopram 2.5 mg/kg i.p. daily for 5 weeks) was 50%; in experiment [2] (citalopram 5.0 mg/kg i.p. daily for 5 weeks) it was 62.5%.
